From US8173626B2, “Methods, dosing regimens and medications using anti-progestational agents for the treatment of disorders” (Danco Laboratories LLC, priority 2006, dated 2012)

How the values were obtained:
uterine leiomyomata [1] = experiment: Clinical study of 2.5 mg mifepristone for the treatment of uterine leiomyomata (Example 1); format: in vivo, human; conditions: 2.5 mg daily, three months
Experimental: The study was conducted at a single site in Rochester, N.Y. Subjects: Inclusion criteria for the study included that subjects be (i) female; (ii) 18 years of age to premenopausal; and (iii) willing and able to give informed consent and comply with study requirements; and have (i) at least moderate symptoms of menorrhagia and/or pelvic pain/pressure; (ii) a total uterine volume greater than or equal to 160 cubic centimeters (cc) by ultrasound measurement; (iii) at least one leiomyomata ≧2.5 cm in size; (iv) a score of equal to or greater than 39 on the Uterine Fibroid Symptom and Quality of Life Scale; (v) declined standard treatment options for symptomatic leiomyomata; and (vi) agreed to use a barrier method (condoms, diaphragms) or other effective non-hormonal method of contraception (abstinence, sterilization) throughout participation in the study. Exclusion criteria for the study included: (i) current or planned pregnancy during the study period; (ii) menopausal, as indicated by follicle-stimulating hormone (FSH) level of the reference laboratory; (iii) currently breast-feeding; (iv) untreated abnormal pap smear; (v) presence of conditions other than leiomyomata contributing to pain and/or bleeding; (vi) hemoglobin […]; (vii) presence of […] masses or tenderness requiring further evaluation or surgery; (viii) grade III or IV hydronephrosis by ultrasound; (ix) severe, active mental disorder; […] (xi) current or recent (within the last three months) use of oral systemic corticosteroids, hormones (including estrogens, progestins, oral contraceptives), danazol, anticoagulants, or herbal or botanical supplements with possible hormonal effects; (xii) use within the past six months of GnRH analogs or Depo-Provera®; and (xiii) current or planned use during the study of any of the following medications or products: ketoconazole, itraconazole, erythromycin, grapefruit juice, rifampin, St. John's Wort, phenytoin, phenobarbital or carbamazepine Primary recruitment of subjects occurred through direct advertising and physician referrals. Women who were successfully prescreened were contacted by telephone and invited to an screening session/orientation. Prospective subjects were provided with a verbal and written description of the study and requirements for participation. Written informed consent was obtained from each participant at the screening session/orientation, and medical record releases were obtained and reviewed by the project gynecologist. Participants who gave consent were assigned a study ID number and asked to proceed further with the screening session. […] During the screening session the following information was collected: Physical Examination: Height, weight, blood pressure, pulse readings, examination of the breasts, heart, lungs, abdomen, and complete gynecologic examination including bi-manual at screening session/orientation (baseline). Height, weight, blood pressure, pulse readings and examination of the breasts. Blood samples: Negative pregnancy test and normal liver function testing (ALT, AST), hemoglobin and FSH levels. Ultrasonography: All subjects underwent abdominal and vaginal ultrasonography and uterine artery and leiomyomata blood flow assessment. Specifically, uterine leiomyomata size was assessed by transabdominal and/or transvaginal sonography by a single, certified and experienced ultrasonographer. Combined abdominal and vaginal ultrasonography was the standard for assessing leiomyomata size. […]

[2] = tested on: breakthrough uterine bleeding in new starters of DMPA; experiment: Mifepristone for prevention of breakthrough bleeding in new starters of DMPA (Example 9); format: in vivo, human; conditions: 50 mg capsule every 14 days with DMPA
uterine leiomyomata [3] = experiment: Randomized, double-blinded, placebo-controlled study of mifepristone 5 mg daily for symptomatic uterine leiomyomata (Example 11); format: in vivo, human
Source text: The Study and Results are described in […] et al., Obstetrics & Gynecology, 108(6) (2006), hereby incorporated by reference in its entirety. […] Women were excluded if they were pregnant or intended to become pregnant during the next 6 months or had major medical morbidity or severe anemia, active mental illness, elevated liver enzymes, or substance abuse. Participants agreed to use barrier contraception and not to use hormonal or surgical treatments for leiomyomata during the course of the trial. Analgesic use was permitted. […] Secondary measures included global health status (Medical Outcomes 36-item Short Form [SF-36] survey) and global pain (McGill Pain Questionnaire). Each questionnaire was administered at baseline, 1 month, 3 months, and 6 months, except the McGill Pain Questionnaire, which was assessed monthly. Bleeding was assessed by using daily menstrual logs and pictorial bleeding charts. A monthly blood loss index was calculated from menstrual history by assigning values […] to each day of spotting, indicating light, moderate, and heavy flow, respectively, and then summing the results. Monthly assessments of the presence and intensity of likely leiomyoma symptoms (including pelvic pain, pelvic pressure, bladder pressure, urinary frequency, low back pain, rectal pain, and pain with intercourse) and drug adverse effects (including hot flushes, headache, nausea, vomiting, mood swings, diarrhea, decreased libido, weakness, fatigue, and nervousness) were performed with a standardized instrument consisting of 5-point Likert scale items. […] The uterus was measured in three planes and a total volume calculated. The five largest leiomyomata were identified, a volume calculated for each of the leiomyomata, and the results summed. Baseline uterine volume was subtracted from each subsequently measured uterine volume, and volume changes were analyzed. The final analysis was powered to detect a 25-point difference in mean Uterine Fibroid Symptom Quality of Life scores. Differences in Uterine Fibroid Symptom Quality of Life scores, ultrasound measures, bleeding, pain, and other longitudinal measures were assessed by using individual growth curve models. […] Approximate t tests were used to test hypotheses of between-group and within-group differences in outcomes.

uterine leiomyomata [4] = conditions: cited from earlier work
[5] = tested on: endometrial receptors and breakthrough bleeding; conditions: women on Norplant, mifepristone orally; Cheng et al.; cited from earlier work
[6] = target: glucocorticosteroid receptor (GR) (Homo sapiens, UniProt P04150); conditions: cited from earlier work
glucocorticosteroid receptor (GR), sequence (P04150 whole entry): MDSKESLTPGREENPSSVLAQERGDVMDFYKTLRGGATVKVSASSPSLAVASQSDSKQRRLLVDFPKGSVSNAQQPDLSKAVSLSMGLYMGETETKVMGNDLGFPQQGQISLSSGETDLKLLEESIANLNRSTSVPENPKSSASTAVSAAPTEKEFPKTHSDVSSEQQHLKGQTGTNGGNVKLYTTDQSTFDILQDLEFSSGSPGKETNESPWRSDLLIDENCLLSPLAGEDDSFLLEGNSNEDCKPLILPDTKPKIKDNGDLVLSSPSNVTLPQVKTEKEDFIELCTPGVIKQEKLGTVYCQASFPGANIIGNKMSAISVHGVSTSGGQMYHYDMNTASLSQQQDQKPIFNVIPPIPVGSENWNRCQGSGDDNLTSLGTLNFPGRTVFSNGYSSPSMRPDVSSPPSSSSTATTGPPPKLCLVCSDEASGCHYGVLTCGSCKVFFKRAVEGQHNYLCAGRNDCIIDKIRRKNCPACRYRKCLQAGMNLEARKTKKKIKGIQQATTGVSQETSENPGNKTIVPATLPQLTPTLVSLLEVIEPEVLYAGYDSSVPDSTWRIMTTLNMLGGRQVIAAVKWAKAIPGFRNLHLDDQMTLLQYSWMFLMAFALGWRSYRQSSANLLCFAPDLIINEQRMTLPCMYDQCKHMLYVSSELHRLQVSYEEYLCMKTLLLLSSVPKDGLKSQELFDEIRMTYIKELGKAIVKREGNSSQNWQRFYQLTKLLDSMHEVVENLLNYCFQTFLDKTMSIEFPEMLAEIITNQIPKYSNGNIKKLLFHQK

## CC#C[C@]1(O)CC[C@H]2[C@@H]3CCC4=CC(=O)CCC4=C3[C@@H](c3ccc(N(C)C)cc3)C[C@@]21C [mifepristone, 17-hydroxy-11-(4-dimethylaminophenyl)-17-(prop-1-ynyl)estra-4,9-dien-3-one]
Uterine leiomyomata [1]
  amenorrhea: all subjects became amenorrheic
  mean decrease in leiomyomata volume: 26%
  mean decrease in uterine volume: 19%
Uterine leiomyomata [1]; baseline 187
  mean leiomyomata volume (aggregated) after treatment: 139
Uterine leiomyomata [1]; baseline 795 cc
  mean uterine volume after treatment: 653 cc
[2]; 1232 women-days, placebo 30%, p<0.05, results to date
  median percentage days of bleeding: 11%
[2]; to date
  adverse events: no adverse events have occurred
Uterine leiomyomata [3]; 5 mg daily for 26 weeks, first weeks of treatment
  period in which most of the improvement in symptoms and quality of life occurred: 8-12 weeks
Uterine leiomyomata [3]; 5 mg daily, 6 months
  SF-36 subscales: improvements in energy and fatigue, health status change, and pain
  endometrial hyperplasia or other significant endometrial pathology: No endometrial hyperplasia or other significant endometrial pathology was observed
  liver function: None of the participants showed abnormal liver function
  reduction in leiomyoma size vs placebo: statistically significant differences in reduction in leiomyoma size
Uterine leiomyomata [3]; 5 mg daily, 6 months, P<0.001 overall
  leiomyoma-specific quality of life and aspects (concern, activities, energy and mood, control, self-consciousness, sexual functioning) vs placebo: Significant improvements
Uterine leiomyomata [3]; 5 mg daily, 6 months, P=0.02, placebo increased 73 mL
  average decrease of uterine volume: 200 mL
Uterine leiomyomata [3]; 5 mg daily, 6 months, difference to placebo not statistically significant
  pain, McGill Pain Questionnaire: decreases in pain
Uterine leiomyomata [3]; 5 mg daily, 6 months, from 12.0 g/dL, P<0.001
  mean hemoglobin level after treatment: 13.5 g/dL
Uterine leiomyomata [3]; 5 mg daily, 6 months, incidence and severity not statistically different from placebo
  potential medication adverse effects: uncommon
Uterine leiomyomata [3]; 5 mg daily, 6 months, low dropout rate
  tolerability: well tolerated
Uterine leiomyomata [3]; 5 mg daily, 6 months, not in placebo group
  bleeding: decreased markedly
Uterine leiomyomata [3]; 5 mg daily, 6 months, of a possible 100 points, range 0-86, placebo 16.7
  mean Uterine Fibroid Symptoms Quality of Life increase: 50.1 points
Uterine leiomyomata [3]; 5 mg daily, 6 months, placebo 41%
  mean Uterine Fibroid Symptoms Quality of Life increase, percent: 135%
Uterine leiomyomata [3]; 5 mg daily, 6 months, secondary regression, placebo increased 10%
  average decrease of uterine volume adjusted for individual baseline volume: 47%
Uterine leiomyomata [3]; 5 mg daily, 6 months, treated women vs placebo
  cystic glandular dilatation of the endometria: Higher rates
Uterine leiomyomata [3]; 5 mg daily, 2 of 22, baseline 11 of 22 (50%), control 60%
  women anemic (hemoglobin below 12.0 g/dL) after six months: 9%
Uterine leiomyomata [3]; 5 mg daily, 9 of 22 women, none in placebo group
  women amenorrheic by the sixth month: 41%
Uterine leiomyomata [3]; 5 mg daily, from 67 at baseline, placebo 67 to 50
  symptom severity score at 6 months: 21
Uterine leiomyomata [3]; 5 mg daily, group difference significant only for pain with intercourse (P<0.05)
  monthly reports of symptoms (pelvic pain, pelvic pressure, bladder pressure, urinary frequency, low back pain, rectal pain, pain with intercourse): all showed improvements
Uterine leiomyomata [4]; 5 mg administered for 6 months, Eisinger et al.
  effectiveness: confirmed the effectiveness
Uterine leiomyomata [4]; Eisinger et al. 2003
  uterine leiomyomata size: reduce uterine leiomyomata size
Uterine leiomyomata [4]; Kettel et al., Murphy et al.
  uterine shrinkage and rates of amenorrhea compared with GnRH agonists: equivalent amount of uterine shrinkage and rates of amenorrhea to GnRH agonists
Uterine leiomyomata [4]; doses such as 10 mg
  side effects of the lower described doses: increased hot flashes
Uterine leiomyomata [4]; doses such as 50 mg
  side effects of the highest described doses: can increase the prevalence and severity of hot flashes, can cause an elevation in hepatic enzymes
[5]
  breakthrough bleeding: decreased breakthrough bleeding
  endometrial estrogen receptor concentration: increased endometrial estrogen receptor concentration
  endometrial progesterone receptor concentration: decreased endometrial progesterone receptor concentration
[6]
  affinity for the glucocorticosteroid receptor (GR): high affinity
